Source: US20250195553A1, “Use of Genipin-1-B-D-Gentiobioside in Preparation of Drug” (Guizhou Bailing Group Pharmaceutical Co., Ltd., priority 2023, published 2025)

Assays:
[1] = system: SARS-CoV-2; experiment: Virus titer in lung tissue homogenates of SARS-CoV-2 infected mice (TCID50 on VERO E6 cells); format: in vivo, hACE2 transgenic C57BL/6 mice
Method: 2.1 Grouping and Drug Administration: hACE2 transgenic C57BL/6 mice were divided into four groups, namely the blank control group, the SARS-CoV-2 infection group, the Genipin-1-β-D-gentiobioside (37.5 mg/kg) treatment group, and the Genipin-1-β-D-gentiobioside (75 mg/kg) treatment group, with 8 mice in each group. Except for the normal group, which received intranasal administration of Phosphate Buffered Saline (PBS), the other groups were infected with 10^4 Plaque Forming Unit (PFU) of Severe Acute Respiratory Syndrome Coronavirus 2 (SARS-CoV-2) virus via intranasal instillation. Two hours' post-infection, the treatment groups received intraperitoneal injections of the drug once daily for 5 consecutive days. Mouse deaths were recorded daily after infection, and the 5-day mortality rate was calculated. At the end of the experiment, the lung tissues were collected and homogenized for virus titer detection. […]
The well-grown VERO E6 cells were inoculated into a 96-well plate at a density of 1×10^4 cells per well and cultured for another 24 hours. […] The number of wells showing CPE at each concentration gradient was recorded, and the Tissue Culture Infectious Dose 50% (TCID50) value for VERO E6 cells was calculated.

[2] = system: Lipopolysaccharide (LPS)-induced pneumonia model in mice; experiment: LPS-induced pneumonia model in mice, intravenous injection: lung index; format: in vivo, ICR mice; settings: for Lung Index: 6 h after LPS
Method: Sixty healthy mice, weighing 18˜20 g, half male and half female, were selected and randomly grouped after stratification by weight; they were divided into a normal control group, a model control group, three Genipin-1-β-D-gentiobioside dose groups (150 mg/kg/d, 75 mg/kg/d, 37.5 mg/kg/d), and a positive control drug Sivelestat Sodium 50 mg/kg/d group, with 10 mice in each group, half male and half female. After grouping, each treatment group was administered intravenously at 20 ml/kg once daily for 2 consecutive days, while the normal control group and model control group were injected with physiological saline. One hour after the second dose, except for the normal control group, the other groups were lightly anesthetized with isoflurane, and a 20 mg/ml LPS physiological saline solution was administered intranasally to the mice at 0.05 ml/mouse to induce the pneumonia model. Six hours after infection, the animals were sacrificed, dissected, and their lungs were removed and weighed to calculate the lung index (lung index=lung weight/body weight×100%).

[3] = 37.5 mg/kg i.v. once daily 2 days
[4] = 75 mg/kg i.v. once daily 2 days
[5] = 150 mg/kg i.v. once daily 2 days

COC(=O)C1=CO[C@@H](O[C@@H]2O[C@H](CO[C@@H]3O[C@H](CO)[C@@H](O)[C@H](O)[C@H]3O)[C@@H](O)[C@H](O)[C@H]2O)[C@@H]2C(CO)=CC[C@H]12 [Genipin-1-β-D-gentiobioside]
Virus titer in the lung tissue vs model control group ([1]; 37.5 mg/kg, P<0.05): significantly reduced the virus titer | Virus titer in the lung tissue vs model control group ([1]; 75 mg/kg, P<0.01): significantly reduced the virus titer | Inhibition Rate (lung index) [2, 3]: 48.85 | Lung Index [2, 3]: 0.91 ± 0.09 g/100 g body weight | Inhibition Rate (lung index) [2, 4]: 94.65 | Lung Index [2, 4]: 0.85 ± 0.14 g/100 g body weight | Inhibition Rate (lung index) [2, 5]: 77.10 | Lung Index [2, 5]: 0.87 ± 0.01 g/100 g body weight
